Experimental data as given in ChEMBL document CHEMBL1772973, “Design, synthesis, radiolabeling, and in vitro and in vivo evaluation of bridgehead iodinated analogues of N-{2-[4-(2-methoxyphenyl)piperazin-1-yl]ethyl}-N-(pyridin-2-yl)cyclohexanecarboxamide (WAY-100635) as potential SPECT ligands for the 5-HT1A receptor” (J Med Chem, 2011).
Blank lines part the entries; values can stand above or below the compound they belong to.

Tests used:
[1] = molecular target: T1, Alpha-1D adrenergic receptor (Homo sapiens, UniProt P25100)
T1 sequence (P25100 whole entry): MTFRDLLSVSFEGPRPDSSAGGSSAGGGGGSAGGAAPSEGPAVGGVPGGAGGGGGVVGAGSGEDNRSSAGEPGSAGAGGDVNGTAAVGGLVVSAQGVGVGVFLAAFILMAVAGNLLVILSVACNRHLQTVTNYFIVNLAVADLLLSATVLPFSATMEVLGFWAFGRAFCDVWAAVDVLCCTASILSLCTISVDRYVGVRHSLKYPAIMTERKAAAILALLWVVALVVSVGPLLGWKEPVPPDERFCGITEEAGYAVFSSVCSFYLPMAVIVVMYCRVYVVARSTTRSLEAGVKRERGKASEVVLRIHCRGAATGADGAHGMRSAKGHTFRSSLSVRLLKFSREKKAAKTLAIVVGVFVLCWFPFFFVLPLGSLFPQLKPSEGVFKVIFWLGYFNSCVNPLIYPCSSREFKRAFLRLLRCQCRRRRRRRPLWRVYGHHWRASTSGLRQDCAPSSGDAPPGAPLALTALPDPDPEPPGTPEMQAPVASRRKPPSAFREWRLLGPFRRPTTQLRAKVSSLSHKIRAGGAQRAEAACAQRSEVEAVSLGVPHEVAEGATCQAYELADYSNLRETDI
Description: Inhibition of adrenergic Alpha-1D receptor

[2] = molecular target: T2, D(4) dopamine receptor (Homo sapiens, UniProt P21917)
T2 sequence (P21917 whole entry): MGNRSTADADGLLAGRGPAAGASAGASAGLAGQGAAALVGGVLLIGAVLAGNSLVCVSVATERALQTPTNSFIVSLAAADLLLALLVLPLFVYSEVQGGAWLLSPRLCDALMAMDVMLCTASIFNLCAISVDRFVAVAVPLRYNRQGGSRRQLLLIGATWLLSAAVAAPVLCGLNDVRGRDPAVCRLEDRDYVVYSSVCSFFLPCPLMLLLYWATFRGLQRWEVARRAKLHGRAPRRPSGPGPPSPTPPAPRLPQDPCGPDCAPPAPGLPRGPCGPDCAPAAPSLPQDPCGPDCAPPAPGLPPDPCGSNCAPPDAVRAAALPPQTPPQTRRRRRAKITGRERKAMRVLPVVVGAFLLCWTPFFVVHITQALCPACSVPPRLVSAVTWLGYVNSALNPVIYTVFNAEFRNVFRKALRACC
Description: Inhibition of dopamine D4 receptor

[3] = molecular target: T3, Alpha-1B adrenergic receptor (Homo sapiens, UniProt P35368)
T3 sequence (P35368 whole entry): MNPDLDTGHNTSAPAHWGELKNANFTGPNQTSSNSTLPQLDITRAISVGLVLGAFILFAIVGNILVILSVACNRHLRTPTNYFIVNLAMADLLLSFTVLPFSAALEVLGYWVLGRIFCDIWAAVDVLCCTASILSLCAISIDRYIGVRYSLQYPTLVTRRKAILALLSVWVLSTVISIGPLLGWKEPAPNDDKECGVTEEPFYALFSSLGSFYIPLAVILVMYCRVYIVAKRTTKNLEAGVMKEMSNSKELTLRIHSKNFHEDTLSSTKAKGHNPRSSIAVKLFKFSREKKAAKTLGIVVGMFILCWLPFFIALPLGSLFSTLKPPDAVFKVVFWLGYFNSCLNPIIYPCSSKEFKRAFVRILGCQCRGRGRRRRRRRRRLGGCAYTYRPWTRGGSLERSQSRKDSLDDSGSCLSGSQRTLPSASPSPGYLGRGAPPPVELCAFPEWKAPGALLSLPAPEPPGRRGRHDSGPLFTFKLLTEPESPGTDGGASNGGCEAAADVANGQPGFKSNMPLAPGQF
Description: Inhibition of adrenergic Alpha-1B receptor

[4] = molecular target: 5-hydroxytryptamine receptor 7 (Homo sapiens, UniProt P34969)
5-hydroxytryptamine receptor 7, sequence (P34969 whole entry): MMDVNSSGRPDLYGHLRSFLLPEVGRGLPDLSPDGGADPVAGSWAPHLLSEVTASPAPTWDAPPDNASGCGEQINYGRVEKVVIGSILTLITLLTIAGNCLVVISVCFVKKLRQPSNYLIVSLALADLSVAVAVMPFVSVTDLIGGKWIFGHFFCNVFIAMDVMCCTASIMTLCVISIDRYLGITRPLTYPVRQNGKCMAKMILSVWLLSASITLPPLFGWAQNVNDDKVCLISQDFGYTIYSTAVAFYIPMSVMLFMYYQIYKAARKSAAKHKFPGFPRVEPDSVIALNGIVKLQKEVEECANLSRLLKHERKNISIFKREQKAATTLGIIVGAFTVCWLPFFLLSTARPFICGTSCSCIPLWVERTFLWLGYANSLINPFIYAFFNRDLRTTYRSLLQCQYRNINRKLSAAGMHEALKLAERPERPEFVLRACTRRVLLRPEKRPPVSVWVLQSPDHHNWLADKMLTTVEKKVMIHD

[5] = molecular target: T4, Alpha-1A adrenergic receptor (Homo sapiens, UniProt P35348)
T4 sequence (P35348 whole entry): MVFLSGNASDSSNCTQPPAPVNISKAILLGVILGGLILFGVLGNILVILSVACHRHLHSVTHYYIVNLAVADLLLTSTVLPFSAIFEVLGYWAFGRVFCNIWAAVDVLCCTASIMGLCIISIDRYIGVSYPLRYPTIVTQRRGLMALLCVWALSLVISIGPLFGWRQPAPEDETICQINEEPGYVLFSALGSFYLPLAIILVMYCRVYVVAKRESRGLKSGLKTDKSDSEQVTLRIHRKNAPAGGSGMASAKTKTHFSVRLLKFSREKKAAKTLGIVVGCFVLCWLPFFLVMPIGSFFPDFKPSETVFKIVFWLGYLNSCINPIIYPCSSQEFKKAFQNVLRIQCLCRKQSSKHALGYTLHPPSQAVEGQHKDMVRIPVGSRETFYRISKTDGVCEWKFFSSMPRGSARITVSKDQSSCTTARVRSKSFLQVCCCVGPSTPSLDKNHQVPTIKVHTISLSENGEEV
Description: Inhibition of adrenergic alpha1A receptor

[6] = molecular target: T5, 5-hydroxytryptamine receptor 1A (Homo sapiens, UniProt P08908)
T5 sequence (P08908 whole entry): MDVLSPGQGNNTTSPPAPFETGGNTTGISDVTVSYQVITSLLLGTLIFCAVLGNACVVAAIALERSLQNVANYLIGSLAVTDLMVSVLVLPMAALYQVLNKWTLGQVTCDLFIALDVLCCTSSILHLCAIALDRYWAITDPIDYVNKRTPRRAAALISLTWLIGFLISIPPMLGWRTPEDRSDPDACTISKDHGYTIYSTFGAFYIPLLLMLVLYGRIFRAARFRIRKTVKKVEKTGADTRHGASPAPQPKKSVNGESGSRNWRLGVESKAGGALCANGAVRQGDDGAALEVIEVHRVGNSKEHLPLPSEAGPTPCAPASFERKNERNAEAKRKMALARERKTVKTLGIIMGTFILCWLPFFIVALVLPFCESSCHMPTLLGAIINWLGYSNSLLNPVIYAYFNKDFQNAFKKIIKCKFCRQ

[7] = molecular target: 5-hydroxytryptamine receptor 1B (Homo sapiens, UniProt P28222)
5-hydroxytryptamine receptor 1B, sequence (P28222 whole entry): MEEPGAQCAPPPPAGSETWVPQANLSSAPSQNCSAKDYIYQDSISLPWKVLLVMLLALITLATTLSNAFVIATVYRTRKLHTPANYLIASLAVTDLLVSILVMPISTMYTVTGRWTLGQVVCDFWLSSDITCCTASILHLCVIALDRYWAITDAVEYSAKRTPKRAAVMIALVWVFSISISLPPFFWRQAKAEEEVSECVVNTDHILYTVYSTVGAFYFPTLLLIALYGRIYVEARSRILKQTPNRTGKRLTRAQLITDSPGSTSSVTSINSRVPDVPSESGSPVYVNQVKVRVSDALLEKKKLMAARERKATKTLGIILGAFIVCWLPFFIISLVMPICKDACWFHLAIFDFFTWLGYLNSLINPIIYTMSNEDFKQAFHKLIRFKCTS

[8] = physchem; details: octanol/water, pH 7.4
[9] = molecular target: T5, 5-hydroxytryptamine receptor 1A; assay: biochemical
Description: Displacement of [3H]8-OH-DPAT from human cloned 5HT1A receptor expressed in HEK293 EBNA cells after 1 hr by liquid scintillation counting

[10] = tested on: Liver; assay: Biodistribution in Wistar rat liver at 7 MBq, iv after 45 mins; type: ADME, organism-based; details: in vivo, 0.75 h
[11] = tested on: Blood; assay: Biodistribution in Wistar rat blood at 7 MBq, iv after 45 mins; type: ADME, organism-based; details: in vivo, 0.75 h
[12] = tested on: Heart; assay: Biodistribution in Wistar rat heart at 7 MBq, iv after 45 mins; type: ADME, organism-based; details: in vivo, 0.75 h
[13] = tested on: Striatum; assay: Biodistribution in Wistar rat striatum at 7 MBq, iv after 45 mins; type: ADME, organism-based; details: in vivo, 0.75 h
[14] = tested on: Occipital cortex; assay: Biodistribution in Wistar rat occipital cortex at 7 MBq, iv after 45 mins; type: ADME, organism-based; details: in vivo, 0.75 h
[15] = tested on: Lung; assay: Biodistribution in non-labeled WAY-100635 ptretreated Wistar rat lung at 7 MBq, iv after 45 mins; type: ADME, organism-based; details: in vivo, 0.75 h
[16] = tested on: Heart; assay: Biodistribution in non-labeled WAY-100635 ptretreated Wistar rat heart at 7 MBq, iv after 45 mins; type: ADME, organism-based; details: in vivo, 0.75 h
[17] = tested on: Blood; assay: Biodistribution in non-labeled WAY-100635 ptretreated Wistar rat blood at 7 MBq, iv after 45 mins; type: ADME, organism-based; details: in vivo, 0.75 h
[18] = tested on: Hippocampus; assay: Biodistribution in Wistar rat hippocampus at 7 MBq, iv after 45 mins; type: ADME, organism-based; details: in vivo, 0.75 h
[19] = tested on: Rattus norvegicus; assay: Biodistribution in Wistar rat rest cortex at 7 MBq, iv after 45 mins; type: ADME, organism-based; details: in vivo, 0.75 h
[20] = tested on: Rattus norvegicus; assay: Biodistribution in Wistar rat frontal cortex at 7 MBq, iv after 45 mins; type: ADME, organism-based; details: in vivo, 0.75 h
[21] = tested on: Cerebellum; assay: Biodistribution in Wistar rat cerebellum at 7 MBq, iv after 45 mins; type: ADME, organism-based; details: in vivo, 0.75 h
[22] = tested on: Kidney; assay: Biodistribution in Wistar rat kidney at 7 MBq, iv after 45 mins; type: ADME, organism-based; details: in vivo, 0.75 h
[23] = tested on: Lung; assay: Biodistribution in Wistar rat lung at 7 MBq, iv after 45 mins; type: ADME, organism-based; details: in vivo, 0.75 h
[24] = tested on: Liver; assay: Biodistribution in non-labeled WAY-100635 ptretreated Wistar rat liver at 7 MBq, iv after 45 mins; type: ADME, organism-based; details: in vivo, 0.75 h
[25] = tested on: Kidney; assay: Biodistribution in non-labeled WAY-100635 ptretreated Wistar rat kidney at 7 MBq, iv after 45 mins; type: ADME, organism-based; details: in vivo, 0.75 h
[26] = tested on: Thyroid gland; assay: Biodistribution in non-labeled WAY-100635 ptretreated Wistar rat thyroid assessed per organ at 7 MBq, iv after 45 mins; type: ADME, organism-based; details: in vivo, 0.75 h
[27] = tested on: Rattus norvegicus; assay: Biodistribution in non-labeled WAY-100635 ptretreated Wistar rat frontal cortex at 7 MBq, iv after 45 mins; type: ADME, organism-based; details: in vivo, 0.75 h
[28] = tested on: Occipital cortex; assay: Biodistribution in non-labeled WAY-100635 ptretreated Wistar rat occipital cortex at 7 MBq, iv after 45 mins; type: ADME, organism-based; details: in vivo, 0.75 h
[29] = tested on: Rattus norvegicus; assay: Biodistribution in non-labeled WAY-100635 ptretreated Wistar rat rest cortex at 7 MBq, iv after 45 mins; type: ADME, organism-based; details: in vivo, 0.75 h
[30] = tested on: Striatum; assay: Biodistribution in non-labeled WAY-100635 ptretreated Wistar rat striatum at 7 MBq, iv after 45 mins; type: ADME, organism-based; details: in vivo, 0.75 h
[31] = tested on: Hippocampus; assay: Biodistribution in non-labeled WAY-100635 ptretreated Wistar rat hippocampus at 7 MBq, iv after 45 mins; type: ADME, organism-based; details: in vivo, 0.75 h
[32] = tested on: Cerebellum; assay: Biodistribution in non-labeled WAY-100635 ptretreated Wistar rat cerebellum at 7 MBq, iv after 45 mins; type: ADME, organism-based; details: in vivo, 0.75 h
[33] = tested on: Nucleic Acid; assay: Ratio of drug level in cerebellum to hippocampus in Wistar rat at 7 MBq, iv after 45 mins; type: ADME, organism-based; details: in vivo, 0.75 h
[34] = tested on: Nucleic Acid; assay: Ratio of drug level in cerebellum to occipital cortex in Wistar rat at 7 MBq, iv after 45 mins; type: ADME, organism-based; details: in vivo, 0.75 h
[35] = tested on: Nucleic Acid; assay: Ratio of drug level in cerebellum to frontal cortex in Wistar rat at 7 MBq, iv after 45 mins; type: ADME, organism-based; details: in vivo, 0.75 h
[36] = tested on: Nucleic Acid; assay: Ratio of drug level in cerebellum to striatum in Wistar rat at 7 MBq, iv after 45 mins; type: ADME, organism-based; details: in vivo, 0.75 h

Compound: O=C(N(CCN1CCN(c2ccccc2O)CC1)c1ccccn1)C12CCC(I)(CC1)CC2
IC50 [9]: 4.57 nM | Ki [9]: 1.95 nM

Compound: COc1ccccc1N1CCN(CCN(C(=O)C23CCC(I)(CC2)C3)c2ccccn2)CC1
IC50 [9]: 2.02 nM | Ki [9]: 0.87 nM

Compound: COc1ccccc1N1CCN(CCN(C(=O)C23C4C5C2C2C3C4C52[123I])c2ccccn2)CC1 (stereo not drawn)
Drug uptake [10]: 2.34 % ID/g | Drug uptake [11]: 0.24 % ID/g | Drug uptake [12]: 0.16 % ID/g | Drug uptake [13]: 0.04 % ID/g | Drug uptake [14]: 0.06 % ID/g | Drug uptake [15]: 0.31 % ID/g | Drug uptake [16]: 0.2 % ID/g | Drug uptake [17]: 0.33 % ID/g | Drug uptake [18]: 0.1 % ID/g | Drug uptake [19]: 0.05 % ID/g | Drug uptake [20]: 0.06 %ID | Drug uptake [21]: 0.05 % ID/g | Drug uptake [22]: 1.37 % ID/g | Drug uptake [23]: 0.28 % ID/g | Drug uptake [24]: 2.77 % ID/g | Drug uptake [25]: 1.32 % ID/g | Drug uptake [26]: 0.01 %ID | Drug uptake [27]: 0.05 % ID/g | Drug uptake [28]: 0.05 % ID/g | Drug uptake [29]: 0.04 % ID/g | Drug uptake [30]: 0.04 % ID/g | Drug uptake [31]: 0.06 % ID/g | Drug uptake [32]: 0.05 % ID/g | Ratio [33]: 2.51 | Ratio [34]: 1.21 | Ratio [35]: 1.16 | Ratio [36]: 0.91

The next lines start with the values.

Ki [1]: 98 nM | Ki [2]: 329 nM | Ki [3]: 185 nM | Ki [4]: 161 nM | Ki [5]: 78 nM | Ki [6]: 2.2 nM | Ki [7]: 121 nM | logD [8]: 4.14 | IC50 [9]: 2.59 nM | Ki [9]: 1.11 nM
Compound: COc1ccccc1N1CCN(CCN(C(=O)C23C4C5C2C2C3C4C52I)c2ccccn2)CC1 (stereo not drawn)

IC50 [9]: 1.19 nM | Ki [9]: 0.47 nM
Compound: O=C(N(CCN1CCN(c2ccccc2O)CC1)c1ccccn1)C12CCC(I)(CC1)C2
